Measured values: ChEMBL document CHEMBL3045847, “Efficacy evaluation of a neem (Azadirachta indica A. Juss) formulation against root-knot nematodes Meloidogyne incognita” (Crop Prot, 2009)
The source made the active and inactive calls. The calls are words filed in the database; no cut-off is given here.

How the values were obtained:
[1] = Chemical stability of the compound after 4 days by HPLC analysis; assay type: physicochemical; settings: 96 h
[2] = tested on: Meloidogyne incognita; assay: Insecticidal activity against second stage juveniles of Meloidogyne incognita (root-knot nematode) assessed as increase in immotile at 51.2 ug a.i/ml in methanol after 48 to 96 hr; assay type: functional
[3] = tested on: Meloidogyne incognita; assay: Insecticidal activity against second stage juveniles of Meloidogyne incognita (root-knot nematode) assessed as decrease of female nematodes in tomato roots at 0.03 to 30.72 ug/g after 30 days by pot bioassay; assay type: functional, organism-based
[4] = tested on: Meloidogyne incognita; assay: Insecticidal activity against second stage juveniles of Meloidogyne incognita (root-knot nematode) assessed as motility at 0.2 to 3.2 ug a.i/ml in water after 24 to 96 hr; assay type: functional, organism-based
[5] = tested on: Meloidogyne incognita; assay: Insecticidal activity against second stage juveniles of Meloidogyne incognita (root-knot nematode) assessed as motility at 0.2 ug a.i/ml in water after 24 to 96 hr; assay type: functional, organism-based
[6] = tested on: Meloidogyne incognita; assay: Insecticidal activity against second stage juveniles of Meloidogyne incognita (root-knot nematode) assessed as motility at 0.2 to 3.2 ug a.i/ml in methanol after 24 to 96 hr; assay type: functional, organism-based
[7] = tested on: Meloidogyne incognita; assay: Insecticidal activity against second stage juveniles of Meloidogyne incognita (root-knot nematode) assessed as increase in immotile at 12.8 to 51.2 ug a.i/ml in methanol after 24 to 96 hr; assay type: functional, organism-based
[8] = Chemical stability of the compound after 72 hr by HPLC analysis; assay type: physicochemical
[9] = tested on: Solanum lycopersicum; assay: Phytotoxicity in Solanum lycopersicum (tomato) assessed as effect on shoot and root fresh weight at 0.03 to 30.72 ug/g after 24 hr; assay type: organism-based; settings: in vivo
[10] = tested on: Solanum lycopersicum; assay: Toxicity in Solanum lycopersicum (tomato) assessed as effect on shoot and root fresh weight at 0.03 to 30.72 ug/g after 24 hr; assay type: organism-based; settings: in vivo
[11] = tested on: Meloidogyne incognita; assay: Insecticidal activity against second stage juveniles of Meloidogyne incognita (root-knot nematode) assessed as increase in immotile at 12.8 to 51.2 ug a.i/ml in water after 24 to 96 hr; assay type: functional
[12] = tested on: Solanum lycopersicum; assay: Toxicity in Solanum lycopersicum (tomato) assessed as effect on shoot and root fresh weight at 2 ug/g after 24 hr; assay type: organism-based; settings: in vivo
[13] = tested on: Solanum lycopersicum; assay: Phytotoxicity in Solanum lycopersicum (tomato) assessed as effect on shoot and root fresh weight at 2 ug/g after 24 hr; assay type: organism-based; settings: in vivo
[14] = tested on: Meloidogyne incognita; assay: Insecticidal activity against second stage juveniles of Meloidogyne incognita (root-knot nematode) assessed as decrease of female nematodes in tomato roots at 2 ug/g after 30 days by pot bioassay; assay type: functional, organism-based

For `C/C=C(\C)C(=O)O[C@H]1C[C@@H](OC(C)=O)[C@@]2(C(=O)OC)CO[C@H]3[C@@H](O)[C@@](C)([C@]45O[C@@]4(C)[C@@H]4C[C@H]5O[C@@H]5OC=C[C@@]54O)[C@H]4[C@]1(CO[C@]4(O)C(=O)OC)[C@@H]32` (stereo in doubt; form 1) [AZADIRACHTIN A], the Activity [1] was 84% and the Activity [2] was 11%.

With `C/C=C(\C)C(=O)O[C@H]1C[C@@H](OC(C)=O)[C@@]2(C(=O)OC)CO[C@H]3[C@@H](O)[C@@](C)([C@]45O[C@@]4(C)[C@@H]4C[C@H]5O[C@@H]5OC=C[C@@]54O)[C@H]4[C@]1(CO[C@]4(O)C(=O)OC)[C@@H]32` (stereo in doubt; form 2) the Activity [3] was “inactive”, the Activity [4] was “inactive” and the Activity [5] was “inactive”.

In the case of `C/C=C(\C)C(=O)O[C@H]1C[C@@H](OC(C)=O)[C@@]2(C(=O)OC)CO[C@H]3[C@@H](O)[C@@](C)([C@]45O[C@@]4(C)[C@@H]4C[C@H]5O[C@@H]5OC=C[C@@]54O)[C@H]4[C@]1(CO[C@]4(O)C(=O)OC)[C@@H]32` (stereo in doubt; form 1), the Activity [6] is reported as “inactive” and the Activity [7] is reported as “Active”.

In the case of `C/C=C(\C)C(=O)O[C@H]1C[C@@H](OC(C)=O)[C@@]2(C(=O)OC)CO[C@H]3[C@@H](O)[C@@](C)([C@]45O[C@@]4(C)[C@@H]4C[C@H]5O[C@@H]5OC=C[C@@]54O)[C@H]4[C@]1(CO[C@]4(O)C(=O)OC)[C@@H]32` (stereo in doubt; form 2) [AZADIRACHTIN A], the Activity [1] is reported as 88%, the Stability [8] is reported as “Stable” and the Activity [9] is reported as “Non-toxic”. For the same compound, the Activity [10] was “Non-toxic” and the Activity [11] was 21%.

In the case of `CCOP(=O)(SC(C)CC)N1CCSC1=O` (stereo not given) [FOSTHIAZATE], the Activity [12] is reported as “Non-toxic”, the Activity [13] is reported as “Non-toxic” and the Activity [14] is reported as “Active”.
